Laboratory results reported in patent publication US20250144187A1, “COMBINATION OF HYDROLASES AND ANTI-MICROORGANISM DRUGS AND USES THEREOF” (CENTRE FOR EYE AND VISION RESEARCH LIMITED, priority 2023, published 2025).

Legend:
MRSA [1] = assay: High-throughput screening of 1953 FDA-approved compounds with human lysozyme; type: cell-based, Staphylococcus aureus; conditions: compound 25 μM + 1 mg/ml lysozyme, 24-hour
Procedure: 1) High-throughput screening. According to standard screening method [Zhong. […] Commun. 11, 523 (2020)], 1953 FDA-approved compounds from our drugs library at a fixed concentrations of 25 μM were screened against methicillin-resistant Staphylococcus aureus (MRSA) and Staphylococcus epidermis (a coagulase negative Staphylococci, MRSE), in combination with human lysozyme. Specifically, these compounds were added into bacterial suspensions (1×10^5 CFU/ml, in LB medium) in the absence or presence of 1 mg/ml lysozyme. LB medium without bacteria served as background group. Then, the real-time growth curvet of MRSA were monitored per hour and for 24 hours. Absorbance at 600 am (OD600) of bacterial culture at the time point of 24-hour was also measured. The inhibition ratio (%) was calculated as (ODcontrol−ODsample)/(ODcontrol−ODbackground)×100%. […] Herein, the relative and apparent inhibition ratios indicated the combination effect and potential toxicity of compound, respectively. Synergy effect was defined as the relative inhibition ratio of ≥90%. All assays were performed in triplicate.

MRSA and MRSE = assay: Resistance development studies (serial passages), tedizolid phosphate/lysozyme; type: cell-based; conditions: after 12-day serial passages
Procedure: 5) Resistance development studies. […] H et al., Nat Commun. 11, 5263 (2020)], MRSA at exponential phase was diluted (1:1000) into fresh LB medium containing different concentrations of tedizolid phosphate, lysozyme alone or their combination. After cultured at 37° C. for 24 hours, the MIC of culture was determined by standard two-fold serial dilutions in 96-well microtiter plates. […] . All assays were performed in triplicate.

MRSA ocular infection = assay: Ocular infection model, tedizolid phosphate/lysozyme; type: in vivo, C57BL/6 mice
Excerpt: 20) Ocular infection model. According to the reported method [Zhang, Z et al., Curt. Protoc, mouse Bot 7, 55-63 (2017)], 40 C57BL/6, male mice ([…]) were used to evaluate the combination effect in the ocular infection model. Specifically, all mice were divided into 5 groups (4 infected groups and 1 uninfected group, 8 mice per group). Among than, 32 mice in infected groups were infected by slowly inoculating about 2.5×10^7 CFUs of mid-log phase MRSA into each ocular surface. To collect these mid-tog phase ARA, a colony of MRSA cultured in LB-agar plate was firstly picked up and inoculated into fresh LB medium for overnight incubation at 37° C. Then, the overnight culture was diluted (1:300) into fresh LB medium for continuous culture until bacterial OD600 was about 0.6. […] Next, 2.5 μl of bacterial suspensions were slowly inoculated into each ocular surface of anesthetized C57/BL6 mouse on the side of surgical bed. […] After that, they were repeated from the air-anesthetizing room and monitored until they were fully awake, followed by retuned to their cages. […] Then, according to the standard protocol^28, 3 μl of tear fluid was gradient-diluted at 10-fold in 96-well plat to figure out the initial number of viable bacteria in tear fluid according to quantitative grown colony after overnight culture. […]

MRSA [2] = assay: TMT proteomics analysis, tedizolid phosphate/lysozyme; type: cell-based, Staphylococcus aureus
[3] = combination therapy compared with lysozyme alone, 1 hour

Structure (SMILES)	Growth inhibition ratio (mean ± SD, %) MRSA (MRSA [1])	changes in the MIC level of tedizolid phosphate (MRSA and MRSE; combination therapy with lysozyme)	changes in the MIC level of tedizolid phosphate (MRSA and MRSE; tedizolid phosphate alone)	expression level of SP-D in tear fluids (MRSA ocular infection; combination group compared with uninfected group)	bacterial load in both tear fluids and eyeball homogenates (MRSA ocular infection; combination therapy (0.125 mg/ml tedizolid phosphate + 100 mg/ml lysozyme))	level of FtsA (MRSA [2]; combination therapy)	level of OatA (Q2FV54) (MRSA [2]; combination therapy)	level of SepF (MRSA [2]; combination therapy)	expression of ornithine carbamoyltransferase (Q5HCR3) (MRSA [2]; [3])	level of arginine deiminase (Q5HKU2) (MRSA [2]; [3])	level of urease subunit alpha (A5IV71) (MRSA [2]; [3])	phosphoglycerate kinase (Q5HQV3) level (MRSA [2]; combination therapy, 1 hour)	probable malate:quinone oxidoreductase I (P65421) level (MRSA [2]; combination therapy, 1 hour)
C=CC1=C(C(=O)O)N2C(=O)[C@@H](NC(=O)/C(=N\O)c3csc(N)n3)[C@H]2SC1 [cefdinir, Cefdinir]	85.21 ± 9.84%												
Cn1nnc(-c2ccc(-c3ccc(N4C[C@H](COP(=O)(O)O)OC4=O)cc3F)cn2)n1 [tedizolid phosphate, Tedizolid Phosphate]		remained unchanged	30 fold	1.5 fold	0.01 fold	0.003 fold	significant increase	0.5 fold	0.5 fold	3.9 fold	1,5 fold	0.005 fold	0.12 fold
